Data reported in patent US20200277404A1, “COMPOSITIONS AND METHODS FOR REGULATION OF IMMUNE CELL ACTIVATION AND PROLIFERATION” (MONELL CHEMICAL SENSES CENTER, priority 2017, published 2020).

System: bitter receptors (T2Rs)
Experiment: Expression of bitter receptors (T2Rs) in Raw264.7 cells treated with LPS or DEX
Assay type: cell-based
Conditions: mouse monocyte/macrophage Raw264.7 cell line, FIG. 4
Procedure: The mouse monocyte/macrophage Raw264.7 cell line was also used to study T2Rs. Raw264.7 cells were treated with lipopolysaccharide (LPS) and dexamethasone (DEX).

lipopolysaccharide [LPS] was tested, and the “expression levels of some bitter receptors (T2Rs)” value was “strongly induced”.
